Laboratory results published in patent publication US11931424B2, “Combination MCL-1 inhibitors with anti-body drug conjugates” (Gilead Sciences, Inc., priority 2021, dated 2024).

Tested on: panel of breast cancer cell lines
Assay: Compound A with targeted agents and chemotherapies, 72-hour in vitro proliferation assays
Format: cell-based
Conditions: 72-hour proliferation
[1] = AU565 cell line, compound A × partner
[2] = BT-20 cell line, compound A × partner
[3] = CAL-51 cell line, compound A × partner
[4] = CAL-85-1 cell line, compound A × partner
[5] = CAL-120 cell line, compound A × partner
[6] = CAL-148 cell line, compound A × partner
[7] = CAMA-1 cell line, compound A × partner
[8] = DU-4475 cell line, compound A × partner
[9] = EVSA-T cell line, compound A × partner

SMILES: CN(C)C(=O)c1cc2cnc(Nc3ccc(N4CCNCC4)cn3)nc2n1C1CCCC1 [LEE011]
- Best CI [1]: 1.01
- Bliss Volume [1]: −1.41
- HSA volume [1]: −6.50
- Loewe Volume [1]: −4.57
- Synergy Score [1]: 1.58
- Best CI [2]: 0.78
- Bliss Volume [2]: −2.26
- HSA volume [2]: −1.79
- Loewe Volume [2]: −2.17
- Synergy Score [2]: 2.30
- Best CI [3]: 0.77
- Bliss Volume [3]: −1.68
- HSA volume [3]: −1.56
- Loewe Volume [3]: −1.27
- Synergy Score [3]: 0.34
- Best CI [4]: 0.64
- Bliss Volume [4]: −5.58
- HSA volume [4]: −9.15
- Loewe Volume [4]: −7.95
- Synergy Score [4]: 0.23
- Best CI [5]: 0.62
- Bliss Volume [5]: −1.14
- HSA volume [5]: −5.68
- Loewe Volume [5]: −5.28
- Synergy Score [5]: 0.15
- Best CI [6]: 0.86
- Bliss Volume [6]: −4.27
- HSA volume [6]: −5.99
- Loewe Volume [6]: −4.10
- Synergy Score [6]: 0.81
- Best CI [7]: 0.73
- Bliss Volume [7]: −3.85
- Loewe Volume [7]: −6.51
- Synergy Score [7]: 1.09
- Best CI [8]: 0.47
- Bliss Volume [8]: 1.64
- HSA volume [8]: 0.20
- Loewe Volume [8]: 1.04
- Synergy Score [8]: 0.98
- Best CI [9]: 0.63
- Bliss Volume [9]: −0.43
- HSA volume [9]: −2.18
- Synergy Score [9]: 0.34
- Best CI (HCC38, compound A × partner): 0.44
- Bliss Volume (HCC38, compound A × partner): −4.85
- HSA volume (HCC38, compound A × partner): −8.61
- Loewe Volume (HCC38, compound A × partner): −9.77
- Synergy Score (HCC38, compound A × partner): 1.12
- Best CI (HCC70, compound A × partner): 0.93
- Bliss Volume (HCC70, compound A × partner): −0.15
- HSA volume (HCC70, compound A × partner): 0.16
- Loewe Volume (HCC70, compound A × partner): 0.49
- Synergy Score (HCC70, compound A × partner): 6.12
- Bliss Volume (HCC1143, compound A × partner): −3.25
- HSA volume (HCC1143, compound A × partner): −7.75
- Loewe Volume (HCC1143, compound A × partner): −9.95
- Synergy Score (HCC1143, compound A × partner): 1.30
- Best CI (HCC1569, compound A × partner): 0.47
- Bliss Volume (HCC1569, compound A × partner): 5.70
- HSA volume (HCC1569, compound A × partner): 1.89
- Loewe Volume (HCC1569, compound A × partner): 5.08
- Synergy Score (HCC1569, compound A × partner): 3.87
- Best CI (HCC1806, compound A × partner): 0.56
- Bliss Volume (HCC1806, compound A × partner): −3.98
- HSA volume (HCC1806, compound A × partner): −8.72
- Loewe Volume (HCC1806, compound A × partner): −4.05
- Synergy Score (HCC1806, compound A × partner): 0.65
- Best CI (HCC1937, compound A × partner): 0.74
- Bliss Volume (HCC1937, compound A × partner): 2.31
- HSA volume (HCC1937, compound A × partner): −2.66
- Loewe Volume (HCC1937, compound A × partner): 1.04
- Synergy Score (HCC1937, compound A × partner): 2.13
- Best CI (HCC1954, compound A × partner): 0.72
- Bliss Volume (HCC1954, compound A × partner): −0.75
- Loewe Volume (HCC1954, compound A × partner): −1.17
- Synergy Score (HCC1954, compound A × partner): 4.48
- Best CI (HCC2218, compound A × partner): 0.73
- Bliss Volume (HCC2218, compound A × partner): −5.40
- HSA volume (HCC2218, compound A × partner): −4.99
- Loewe Volume (HCC2218, compound A × partner): −5.90
- Synergy Score (HCC2218, compound A × partner): 1.69
- Best CI (HDQ-P1, compound A × partner): 0.04
- Bliss Volume (HDQ-P1, compound A × partner): −2.80
- HSA volume (HDQ-P1, compound A × partner): −6.22
- Loewe Volume (HDQ-P1, compound A × partner): −9.02
- Synergy Score (HDQ-P1, compound A × partner): 0.15
- Best CI (HMC-1-8, compound A × partner): 0.81
- Bliss Volume (HMC-1-8, compound A × partner): 9.82
- HSA volume (HMC-1-8, compound A × partner): 5.13
- Loewe Volume (HMC-1-8, compound A × partner): 5.78
- Synergy Score (HMC-1-8, compound A × partner): 9.01
- Best CI (JIMT-1, compound A × partner): 0.00
- Bliss Volume (JIMT-1, compound A × partner): 0.29
- HSA volume (JIMT-1, compound A × partner): −2.46
- Loewe Volume (JIMT-1, compound A × partner): −4.06
- Synergy Score (JIMT-1, compound A × partner): 0.28
- Best CI (KPL-1, compound A × partner): 0.65
- Bliss Volume (KPL-1, compound A × partner): 0.36
- HSA volume (KPL-1, compound A × partner): −0.31
- Synergy Score (KPL-1, compound A × partner): 1.43

SMILES: CS(=O)(=O)CCNCc1ccc(-c2ccc3ncnc(Nc4ccc(OCc5cccc(F)c5)c(Cl)c4)c3c2)o1 [Lapatinib Ditosylate]
- Best CI [1]: 0.44
- Best CI [2]: 0.18
- Best CI (BT-474 cell line, compound A × partner): 0.02
- Best CI (BT-549 cell line, compound A × partner): 0.45
- Best CI [3]: 1.14
- Best CI [4]: 0.58
- Best CI [5]: 1.36
- Best CI [6]: 0.38
- Best CI [7]: 0.90
- Best CI [8]: 0.65
- Best CI [9]: 0.77
- Best CI (HCC38, compound A × partner): 0.87
- Best CI (HCC70, compound A × partner): 0.35
- Best CI (HCC1143, compound A × partner): 0.54
- Best CI (HCC1569, compound A × partner): 0.53
- Best CI (HCC1806, compound A × partner): 0.74
- Best CI (HCC1937, compound A × partner): 1.22
- Best CI (HCC1954, compound A × partner): 0.07
- Best CI (HCC2218, compound A × partner): 0.02
- Best CI (HDQ-P1, compound A × partner): 0.87
- Best CI (HMC-1-8, compound A × partner): 0.50
- Best CI (JIMT-1, compound A × partner): 0.29
- Best CI (KPL-1, compound A × partner): 0.65
- Best CI (MCF7 cells, Compound A × partner agent): 0.34
- Best CI (MDA-MB-175-VII cells, Compound A × partner agent): 0.32
- Best CI (MDA-MB-231 cells, Compound A × partner agent): 0.77
- Best CI (MDA-MB-361 cells, Compound A × partner agent): 0.87
- Best CI (MDA-MB-436 cells, Compound A × partner agent): 0.51
- Best CI (MDA-MB-453 cells, Compound A × partner agent): 0.45
- Best CI (MDA-MB-468 cells, Compound A × partner agent): 0.36
- Best CI (SK-BR-3 cells, Compound A × partner agent): 0.15
- Best CI (SUM159PT cells, combination of compound A with the named agent): 1.37
- Best CI (T47D cells, combination of compound A with the named agent): 0.41
- Best CI (ZR-75-1 cells, combination of compound A with the named agent): 0.73
- Best CI (ZR-75-30 cells, combination of compound A with the named agent): 0.31

SMILES: CCOc1cc2ncc(C#N)c(Nc3ccc(OCc4ccccn4)c(Cl)c3)c2cc1NC(=O)/C=C/CN(C)C [Neratinib]
- Best CI [1]: 0.40
- Bliss Volume [1]: 18.09
- HSA volume [1]: 11.74
- Loewe Volume [1]: 10.72
- Synergy Score [1]: 19.43
- Best CI [2]: 0.05
- Bliss Volume [2]: 38.29
- HSA volume [2]: 28.06
- Loewe Volume [2]: 28.33
- Synergy Score [2]: 58.64
- Best CI [3]: 0.29
- Bliss Volume [3]: 6.99
- HSA volume [3]: 4.62
- Loewe Volume [3]: 6.71
- Synergy Score [3]: 14.86
- Best CI [4]: 0.13
- Bliss Volume [4]: 22.07
- HSA volume [4]: 18.05
- Loewe Volume [4]: 16.51
- Synergy Score [4]: 28.31
- Best CI [5]: 0.82
- Bliss Volume [5]: 4.43
- HSA volume [5]: 4.29
- Loewe Volume [5]: 3.99
- Synergy Score [5]: 11.20
- Best CI [6]: 0.21
- Bliss Volume [6]: 18.81
- HSA volume [6]: 13.97
- Loewe Volume [6]: 17.68
- Synergy Score [6]: 29.60
- Best CI [7]: 0.40
- Bliss Volume [7]: 26.19
- HSA volume [7]: 5.28
- Loewe Volume [7]: 3.50
- Synergy Score [7]: 6.88
- Best CI [8]: 0.43
- Bliss Volume [8]: 10.55
- HSA volume [8]: 1.06
- Loewe Volume [8]: 0.39
- Synergy Score [8]: 2.06
- Best CI [9]: 0.51
- Bliss Volume [9]: 2.50
- HSA volume [9]: 1.44
- Loewe Volume [9]: 1.31
- Synergy Score [9]: 1.92
- Best CI (HCC38, compound A × partner): 1.06
- Bliss Volume (HCC38, compound A × partner): 17.98
- HSA volume (HCC38, compound A × partner): 8.02
- Loewe Volume (HCC38, compound A × partner): 11.04
- Synergy Score (HCC38, compound A × partner): 11.55
- Best CI (HCC70, compound A × partner): 0.09
- Bliss Volume (HCC70, compound A × partner): 36.07
- HSA volume (HCC70, compound A × partner): 21.70
- Loewe Volume (HCC70, compound A × partner): 21.51
- Synergy Score (HCC70, compound A × partner): 42.47
- Best CI (HCC1143, compound A × partner): 0.47
- Bliss Volume (HCC1143, compound A × partner): 14.84
- HSA volume (HCC1143, compound A × partner): 7.69
- Loewe Volume (HCC1143, compound A × partner): 8.83
- Synergy Score (HCC1143, compound A × partner): 12.39
- Best CI (HCC1569, compound A × partner): 0.76
- Bliss Volume (HCC1569, compound A × partner): 17.69
- HSA volume (HCC1569, compound A × partner): 11.68
- Loewe Volume (HCC1569, compound A × partner): 14.89
- Synergy Score (HCC1569, compound A × partner): 23.33
- Best CI (HCC1806, compound A × partner): 0.15
- Bliss Volume (HCC1806, compound A × partner): 25.34
- HSA volume (HCC1806, compound A × partner): 19.39
- Loewe Volume (HCC1806, compound A × partner): 21.61
- Synergy Score (HCC1806, compound A × partner): 37.41
- Best CI (HCC1937, compound A × partner): 0.84
- Bliss Volume (HCC1937, compound A × partner): 13.93
- HSA volume (HCC1937, compound A × partner): 5.77
- Loewe Volume (HCC1937, compound A × partner): 10.37
- Synergy Score (HCC1937, compound A × partner): 13.10
- Best CI (HCC1954, compound A × partner): 0.06
- Bliss Volume (HCC1954, compound A × partner): 37.73
- HSA volume (HCC1954, compound A × partner): 19.30
- Loewe Volume (HCC1954, compound A × partner): 19.31
- Synergy Score (HCC1954, compound A × partner): 38.93
- Best CI (HCC2218, compound A × partner): 0.05
- Bliss Volume (HCC2218, compound A × partner): 30.06
- HSA volume (HCC2218, compound A × partner): 10.84
- Loewe Volume (HCC2218, compound A × partner): 8.50
- Synergy Score (HCC2218, compound A × partner): 20.85
- Best CI (HDQ-P1, compound A × partner): 0.57
- Bliss Volume (HDQ-P1, compound A × partner): 10.17
- HSA volume (HDQ-P1, compound A × partner): 9.28
- Loewe Volume (HDQ-P1, compound A × partner): 9.93
- Synergy Score (HDQ-P1, compound A × partner): 17.02
- Best CI (HMC-1-8, compound A × partner): 0.24
- Bliss Volume (HMC-1-8, compound A × partner): 19.74
- HSA volume (HMC-1-8, compound A × partner): 14.99
- Loewe Volume (HMC-1-8, compound A × partner): 15.17
- Synergy Score (HMC-1-8, compound A × partner): 30.76
- Best CI (JIMT-1, compound A × partner): 0.18
- Bliss Volume (JIMT-1, compound A × partner): 10.52
- HSA volume (JIMT-1, compound A × partner): 11.00
- Loewe Volume (JIMT-1, compound A × partner): 11.11
- Synergy Score (JIMT-1, compound A × partner): 17.62
